Here are results for 2 molecules from patent US20100273806A1, “TETRAHYDROCYCLOPENTA[B]INDOL-3-YL CARBOXYLIC ACID DERIVATIVES USEFUL IN THE TREATMENT OF AUTOIMMUNE AND INFLAMMATORY DISORDERS” (ARENA PHARMACEUTICALS, INC., priority 2007, published 2010).

The test system of series [1] is experimental autoimmune uveoretinitis. The conditions noted are these: short-term high dose; cited from earlier work.
A further series has as its system C57BL/6 mice. The conditions noted are these: prophylactic oral administration, 1 mg/kg, three times a week; cited from earlier work.
The test system of series [2] is patients with multiple sclerosis. The conditions noted are these: Phase II, relapsing-remitting multiple sclerosis; cited from earlier work.
The target of another series is S1P3 receptor (Homo sapiens, UniProt Q99500). The conditions noted are these: due to its agonism of the S1P3 receptor; cited from earlier work.
For a further series, the system named is mice. The conditions noted are these: oral administration to mice; cited from earlier work.
In series [3] the test system is C57BL/6 mice (recipients of Balbc/J skin grafts). The series can be described thus: Mouse skin allograft survival. Type of series: in vivo. To be noted: 3, 10 and 30 mg/kg orally once a day, compared with vehicle; FIG. 3. The procedure: Animals: Female BALBc/J mice (6 to 7 weeks of age at start of study) (Jackson Laboratory, Bar Harbor, Me.) were housed four per cage and maintained in a humidity- (40-60%) and temperature- (68-72° F.) controlled facility on a 12 h:12 h light/dark cycle (lights on at 6:30 am) with free access to food (Harlan Teklad, Orange, Calif., Rodent Diet 8604) and water. Female C57BL/6 mice (8 to 10 weeks of age at start of study) (Jackson Laboratory, Bar Harbor, Me.) were similarly housed and maintained. Mice were allowed one week of habituation to the animal facility before testing. […]
Clinical scoring: Skin allografts were inspected and digital images recorded daily until rejection, which was defined as the first day on which more than 80% of the graft is necrotic. […] In an optional related study, on posttransplantation day 5 isolated lymphocytes from peripheral lymph nodes and spleen were counted and characterized for activation markers (e.g., T-cell activation markers) by flow cytometry. Also on day 5, grafts were removed from transplanted recipients, cut into small fragments, digested with collagenase and sedimented over Ficoll-Paque (Pharmacia Biotech, Uppsala, Sweden) to isolate graft-infiltrating lymphocytes, which were counted and characterized for activation markers (e.g., T-cell activation markers) by flow cytometry. […]

In another series the test system is Female C57BL/6 mice. The series can be described thus: MOG-induced EAE in mice. It counts as in vivo, mouse. The conditions noted are these: 30 mg/kg orally once a day from day 3 until day 21, compared with vehicle; FIG. 5. The protocol: Animals: Female C57BL/6 mice (8 to 10 weeks of age at start of study) (Jackson Laboratory, Bar Harbor, Me.) were housed four per cage and maintained in a humidity- (40-60%) and temperature- (68-72° F.) controlled facility on a 12 h:12 h light/dark cycle (lights on at 6:30 am) with free access to food (Harlan Teklad, Orange, Calif., Rodent Diet 8604) and water. Mice were allowed one week of habituation to the animal facility before testing.
Induction of EAE: Mice were immunized subcutaneously, 50 μL per hind flank, with a total of 100 μg MOG35-55peptide emulsified 1:1 with Complete Freund's adjuvant containing 4 mg/ml heat-killed Mycobacterium tuberculosis. Mice also received 200 ng pertussis toxin intraperitoneally on the day of immunization and 48 h later.
Clinical scoring: Severity of disease symptoms was scored as follows (in increasing order of severity): 0=normal; 1=limp tail OR hind limb weakness; 2=limp tail AND limb weakness/weakness of 2 or more limbs; 3=severe limb weakness or single limb paralysis; 4=paralysis of 2 or more limbs; 5=death.
Drug treatment: Mice were dosed orally, with vehicle or test compound, once a day from day 3 until day 21. Dosing volume is 5 ml/kg. Test compound was dosed at 30 mg/kg. […] Mice were monitored daily from day 7 onward for disease symptoms. After the last dose on day 21, disease progression was monitored daily for 2 more weeks.

Another series has as its system female NOD/Ltj mice. The series can be described thus: Cyclophosphamide induced type I diabetes in NOD mice. It counts as in vivo, mouse. To be noted: 30 mg/kg orally once a day from day 0 until day 25, compared with vehicle; FIG. 6. The protocol:
Animals: Baseline blood glucose measurements were taken from 9-10 week old female NOD/Ltj mice (Jackson Laboratory, Bar Harbor, Me.) to ensure that they were normoglycemic (blood glucose is 80-120 mg/dL) prior to initiation of the experiment. Blood glucose was measured from tail bleeds using a one touch ultra kit and test strips (LifeScan, Milpitas, Calif.).
Cyclophosphamide induction of Type I diabetes: On day 0 and day 14, normoglycemic NOD mice were injected intraperitoneally with 4 mg cyclophosphamide monohydrate (200 mg/kg) dissolved in 0.9% saline. If mice were diabetic (blood glucose is >250 mg/dL) they were not given a booster dose of cyclophosphamide on day 14.
Drug Treatment: Mice were dosed orally, with vehicle or test compound, once a day from day 0 until day 25. Compounds were suspended in 0.5% methyl cellulose vehicle using a sonicator to ensure uniform suspension. Mice were weighed twice weekly and were dosed according to weight. Dosing volume was 5 mL/kg. Test compound was dosed at 30 mg/kg. Blood glucose was measured twice weekly. After dosing was completed at day 25, the mice continued to be monitored and blood glucose measurements were taken once a week for 3 weeks.

A further series concerns Female Lewis rats. The series can be described thus: Collagen-induced arthritis in rats (ankle diameter). It counts as in vivo, rat. The conditions noted are these: 3, 10 and 30 mg/kg p.o., q.d., day 0 through day 16, compared with vehicle; FIG. 4. The protocol: Female Lewis rats were used in this study. Acclimated animals were anesthetized with isoflurane and given the first collagen injection (day 0). On day 6, they were anesthetized again for the second collagen injection. Collagen was prepared by making a 4 mg/mL solution in 0.01 N acetic acid. Equal volumes of collagen and incomplete Freund's adjuvant were emulsified by hand mixing until a bead of this material held its form when placed in water. Each animal received 300 μL of the mixture each time, spread over 3 subcutaneous sites on the back.
Treatment (p.o., q.d., 5 mL/kg dosing volume) began on day 0 and continued through day 16 with vehicle or compounds given at 24 h intervals. Rats were weighed on days 0, 3, 6 and 9 through 17 and caliper measurements of the ankles taken on days 9 through 17. The 2nd enantiomer of Compound 7 (isolated after resolution of compound 7 by HPLC, with a retention time of 24 min per the conditions reported in Example 1.22) was dosed at 3, 10 and 30 mg/kg.

Molecules are shown by their SMILES.

S1P3 receptor, sequence (Q99500 whole entry): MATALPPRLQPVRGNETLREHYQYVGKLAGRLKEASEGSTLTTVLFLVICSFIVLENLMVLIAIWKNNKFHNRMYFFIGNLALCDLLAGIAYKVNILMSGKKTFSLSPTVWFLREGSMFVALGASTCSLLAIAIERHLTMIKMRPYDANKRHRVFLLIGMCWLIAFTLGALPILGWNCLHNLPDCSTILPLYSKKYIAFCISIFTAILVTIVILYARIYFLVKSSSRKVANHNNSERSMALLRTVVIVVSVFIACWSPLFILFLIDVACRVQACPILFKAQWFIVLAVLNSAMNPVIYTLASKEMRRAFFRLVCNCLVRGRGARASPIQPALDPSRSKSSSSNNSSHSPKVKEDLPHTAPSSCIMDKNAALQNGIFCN

Take `CCCCCCCCc1ccc(CCC(N)(CO)CO)cc1` [FTY720]: in series [1], the ocular infiltrates result was “rapidly reduced ocular infiltrates”. Further, the “development of EAMG” value in the series on C57BL/6 mice is reported as “completely prevented the development of experimental autoimmune myasthenia gravis (EAMG)”. Also, in series [2], the “number of lesions detected by MRI and clinical disease activity” value was “reduce the number of lesions detected by magnetic resonance imaging (MRI) and clinical disease activity”. Further, the “adverse event in clinical trials” value at S1P3 receptor is “transient asymptomatic bradycardia”. For the same molecule, the VEGF-induced vascular permeability entry in the series on mice is given as “potently blocked VEGF-induced vascular permeability”.
In the case of `N#Cc1cc(OC(F)(F)F)cc(-c2nc(-c3ccc4[nH]c5c(c4c3)CCC5CC(=O)O)no2)c1` (stereo not drawn) [2nd enantiomer of Compound 7, 2-(7-(5-(3-cyano-5-(trifluoromethoxy)phenyl)-1,2,4-oxadiazol-3-yl)-1,2,3,4-tetrahydrocyclopenta[b]indol-3-yl)acetic acid], in series [3], the “delay of time of rejection of the skin allograft” value is given as “exhibited activity in the mouse skin allograft assay”. The “severity of disease symptoms in EAE” value in the series on Female C57BL/6 mice was “exhibited activity in the mouse EAE assay”. For the same molecule, the “incidence of diabetes / promotion of normoglycemia” value with female NOD/Ltj mice is on record as “exhibited activity in the NOD mouse type I diabetes assay”. Moreover, the mean ankle diameter entry with Female Lewis rats was “exhibited activity for reducing mean ankle diameter in the rat”.
